Biological target: T1, S1P1 receptor (Homo sapiens, UniProt P21453)
T1 construct: expressed in transfected cells
Test: S1P1 (EDG-1) GTP[γ-35S] binding assay, membranes from CHO cells
Type: biochemical
Settings: CHO cell membranes
Protocol: A. In Vitro: GPCR Activation Assay Measuring GTP [γ-^35S] Binding to Membranes Prepared from CHO Cells Expressing Human S1P Receptors
S1P, (EDG-1) GTP [γ-^35S] binding assay: Homogenized membranes are prepared from CHO cell clones stably expressing a human EDG-1 N-terminal c-myc tag. Cells are grown in suspension in two 850 cm^2 roller bottles for three or fours days before harvesting. The cells are centrifuged down, washed once with cold PBS, and resuspended in ≦20 ml of Buffer A (20 mM HEPES, pH 7.4, […], EDTA-free complete protease inhibitor cocktail [1 tablet/25 ml]). The cell suspension is homogenized on ice, using a Polytron homogenizer at 30000 rpm at three intervals of 15 seconds each. The homogenate is first centrifuged at 2000 rpm on a tabletop low speed centrifuge for 10 minutes. The supernatant, after passing through a cell strainer, is then re-centrifuged at 50,000×g for 25 minutes at 4° C. The pellet is resuspended into buffer B (15% glycerol, 20 mM HEPES, pH 7.4, 0.1 mM EDTA, EDTA-free complete protease inhibitor cocktail [1 tablet/10 ml]). Protein concentration of the preparation is determined using the BCA Protein Assay kit (Pierce) using BSA as standard. The membranes are aliquoted and kept frozen at −80° C.
Solutions of test compounds ranging from 10 mM to 0.01 nM are prepared in DMSO. S1P is diluted in 4% BSA solution as positive controls. The desired amount of membrane preparation is diluted with ice-cold assay buffer (20 mM HEPES, pH 7.4, 100 mM NaCl, 10 mM MgCl2, 0.1% Fatty acid-free BSA, 5 μM GDP) and vortexed well. 2 μl or less of compound is distributed into each well of a round-bottom 96-well polystyrene assay plate, followed by addition of 100 μl of diluted membranes (3-10 μg/well) and kept on ice until the addition of hot GTPγS. [^35S]-GTPγS is diluted 1:1000 (v/v) with cold assay buffer and 100 μl is added into each well. The reaction is carried out at room temperature for 90 minutes before the membranes are harvested onto Perkin-Elmer Unifilter® GF/B-96 filter plate using a Packard Filtermate Harvester. […]

T1 sequence (P21453 whole entry): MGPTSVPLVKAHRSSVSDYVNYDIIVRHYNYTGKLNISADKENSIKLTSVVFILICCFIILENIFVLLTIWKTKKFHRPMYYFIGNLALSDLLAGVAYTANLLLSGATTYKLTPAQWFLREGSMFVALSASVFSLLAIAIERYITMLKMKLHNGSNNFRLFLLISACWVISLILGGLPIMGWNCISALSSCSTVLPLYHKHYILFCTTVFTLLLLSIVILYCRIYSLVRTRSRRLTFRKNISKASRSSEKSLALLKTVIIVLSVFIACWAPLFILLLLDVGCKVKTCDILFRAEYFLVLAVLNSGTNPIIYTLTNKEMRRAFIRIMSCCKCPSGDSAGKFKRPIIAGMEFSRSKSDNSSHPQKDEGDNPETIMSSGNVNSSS

CCOc1ccc(-c2nc(-c3ccc(CN)cc3)no2)cc1C(F)(F)F [Example 21]
EC50: < 100 nM

CNCc1ccc(-c2noc(-c3ccc(-c4ccccc4)c(C(F)(F)F)c3)n2)cc1 [Example 44]
EC50: < 100 nM

CCc1cc(-c2noc(-c3ccc(OC(C)C)c(-c4ccccc4)c3)n2)ccc1S(N)(=O)=O [Example 105]
EC50: < 100 nM
